One may read the clearance as the rate of elimination divided by the concentration. Broadly, the IC50 is the concentration that inhibits the measured activity by half. A higher IC50 goes with a need for much substance. The term bioavailability denotes dose-corrected exposure relative to a reference, in per cent. Low readings indicate little systemic uptake, high ones much systemic uptake. As a reminder, the half-life is the time in which the quantity being followed falls by half. A high value points to slow decline.

These results are taken from ChEMBL document CHEMBL1146130, “Benzoxazole benzenesulfonamides as allosteric inhibitors of fructose-1,6-bisphosphatase” (Bioorg Med Chem Lett, 2006).

Test system in the first series: not listed separately
Kind of series: Plasma clearance in rat at 5 mg/kg. In kind it is ADME, organism-based. The arrangement: dose 5 mg/kg.
Conditions: not given
Molecule `O=S(=O)(Nc1nc2cc(Cl)ccc2o1)c1ccc2ccccc2c1` had a clearance of 0.667 mL/min/kg.

The target of another series is T1, Fructose-1,6-bisphosphatase 1 (Homo sapiens, UniProt P09467).
T1 sequence (P09467 whole entry): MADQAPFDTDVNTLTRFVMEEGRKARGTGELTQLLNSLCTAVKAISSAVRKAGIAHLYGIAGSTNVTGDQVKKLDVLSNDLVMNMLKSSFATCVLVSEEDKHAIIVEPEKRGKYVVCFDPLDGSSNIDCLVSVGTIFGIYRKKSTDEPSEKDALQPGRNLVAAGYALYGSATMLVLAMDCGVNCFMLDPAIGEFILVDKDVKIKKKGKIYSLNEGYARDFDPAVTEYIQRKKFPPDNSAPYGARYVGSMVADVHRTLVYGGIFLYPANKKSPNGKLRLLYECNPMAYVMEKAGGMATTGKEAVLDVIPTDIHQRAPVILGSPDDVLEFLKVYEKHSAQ
The series can be described thus: Inhibition of human FBPase1.
Conditions: not given
With `O=S(=O)(Nc1nc2cc(Br)ccc2o1)c1cc(Cl)ccc1Cl`, the half-inhibitory concentration (IC50) came out at 1.9 µM.

Turning to `O=S(=O)(Nc1nc2cc(Cl)ccc2o1)c1ccccc1-c1ccccc1`, 3.8 µM corresponded to half-maximal inhibition (IC50). On the same count and under the same terms, with `O=S(=O)(Nc1nc2cc(Cl)ccc2o1)c1ccc(-c2ccccc2)cc1` the figure was 4 µM; with `O=S(=O)(Nc1nc2cc(Cl)ccc2o1)c1cccc(-c2ccccc2)c1`, 9.8 µM. Consider `O=S(=O)(Nc1nc2c(I)cccc2o1)c1cc(Cl)ccc1Cl`, for which the half-inhibitory concentration (IC50) was greater than 50 µM. `Cc1ccc(S(=O)(=O)Nc2nc3cc(Cl)ccc3o2)cc1` had an IC50 of 6.2 µM.

Regarding `Cc1cccc2oc(NS(=O)(=O)c3cc(Cl)ccc3Cl)nc12`, the IC50 stood at 55 µM. Turning to `O=S(=O)(Nc1nc2c(C3=CCNC=C3)cccc2o1)c1cc(Cl)ccc1Cl`, the IC50 is greater than 50 µM. As to `COc1cc(-c2cccc(O)c2)c2oc(NS(=O)(=O)c3cc(Cl)ccc3Cl)nc2c1`, it took 1.7 µM to reach half-maximal inhibition (IC50).

The molecule `O=S(=O)(Nc1nc2cc(Cl)ccc2o1)c1ccc(OC(F)(F)F)cc1` registered an IC50 of 7.8 µM. Same read-out and setting: the value for `Cc1ccc2oc(NS(=O)(=O)c3cc(Cl)ccc3Cl)nc2c1` was 6.4 µM. Still for that read-out and setting: with `O=S(=O)(Nc1nc2ccc(Cl)cc2o1)c1cc(Cl)ccc1Cl` the figure was 8.1 µM. Regarding `CCCCS(=O)(=O)Nc1nc2cc(Cl)ccc2o1`, the IC50 is greater than 50 µM. In turn, `CS(=O)(=O)Nc1nc2cc(Cl)ccc2o1` returned an IC50 greater than 50 µM. The same measure, in the same setting: with `CCCC(=O)Nc1ccc(S(=O)(=O)Nc2nc3cc(Cl)ccc3o2)cc1` the figure was 12 µM; with `Cc1ccc2nc(NS(=O)(=O)c3cc(Cl)ccc3Cl)oc2c1`, 10 µM. `COc1cc(-c2ccc(N)cc2)c2oc(NS(=O)(=O)c3cc(Cl)ccc3Cl)nc2c1` registered a half-maximal inhibitory concentration (IC50) of 1.3 µM.

In the case of `O=S(=O)(Nc1nc2cc(Cl)ccc2o1)c1ccc2cc3ccccc3cc2c1`, the IC50 turned out to be 3.4 µM. Regarding `COc1ccc2nc(NS(=O)(=O)c3cc(Cl)ccc3Cl)oc2c1`, the IC50 was found to be 8 µM. With `O=S(=O)(Nc1nc2cc(Cl)ccc2o1)c1cc(Cl)ccc1Cl`, the IC50 stood at 3.4 µM. `O=S(=O)(Nc1nc2cc(Cl)ccc2o1)c1ccccc1` had a 50% inhibitory concentration (IC50) of 7.7 µM. Regarding `O=S(=O)(Nc1nc2cc(Cl)ccc2o1)c1ccccc1-n1ccnc1`, half-maximal inhibition (IC50) was put at 23 µM. `O=[N+]([O-])c1cccc(S(=O)(=O)Nc2nc3cc(Cl)ccc3o2)c1` yielded an IC50 of 1.8 µM. `O=S(=O)(Nc1nc2cc(-c3ccoc3)ccc2o1)c1cc(Cl)ccc1Cl` yielded an IC50 of 4 µM. As to `O=S(=O)(Nc1nc2cc(Cl)ccc2o1)c1cccc(Cl)c1`, the IC50 was 1.3 µM. In turn, `COc1cc(-c2ccc(O)cc2)c2oc(NS(=O)(=O)c3cc(Cl)ccc3Cl)nc2c1` showed an IC50 of 1.8 µM.

For `O=S(=O)(Nc1nc2cc(Cl)ccc2o1)c1cccs1`, the midpoint of inhibition, the IC50, lay at 13 µM.

For `O=S(=O)(Nc1nc2cc(Cl)ccc2o1)c1c(Cl)cccc1Cl`, the IC50 was greater than 50 µM. For `O=S(=O)(Nc1nc2cc(Cl)ccc2o1)c1ccc(-c2ccoc2)cc1`, inhibition was half-maximal at 6.7 µM (IC50).

`O=S(=O)(Nc1nc2cc(Cl)ccc2o1)c1ccccc1Br`: the IC50 is 6.5 µM. As to `O=S(=O)(Nc1nc2cc(Cl)ccc2o1)c1ccc(F)cc1`, the IC50 was 2.8 µM. As for `O=S(=O)(Nc1nc2cc(Cl)ccc2o1)c1ccc2ccccc2c1`, the IC50 worked out at 2.5 µM. Same read-out and setting: the value for `CC(C)(C)c1ccc2oc(NS(=O)(=O)c3cc(Cl)ccc3Cl)nc2c1` was 32 µM; that for `Cn1cnc(S(=O)(=O)Nc2nc3cc(Cl)ccc3o2)c1` was 9.4 µM. In turn, `N#Cc1ccccc1S(=O)(=O)Nc1nc2cc(Cl)ccc2o1` showed an IC50 of 6 µM. In the case of `COc1cc(-c2cccc(CN)c2)c2oc(NS(=O)(=O)c3cc(Cl)ccc3Cl)nc2c1`, the midpoint of inhibition, the IC50, lay at 2.6 µM.

The molecule `CC(C)(C)c1ccc(COc2cccc(S(=O)(=O)Nc3nc4cc(Cl)ccc4o3)c2)cc1` had an IC50 greater than 50 µM.

On to `CC(C)(C)c1ccc(S(=O)(=O)Nc2nc3cc(Cl)ccc3o2)cc1`, for which the IC50 was found to be 24 µM.

As for `Cc1cccc(Cl)c1S(=O)(=O)Nc1nc2cc(Cl)ccc2o1`, the half-maximal inhibitory concentration (IC50) was greater than 50 µM.

Test system in the next series: not listed separately
The series can be described thus: Oral bioavailability in rat at 5 mg/kg, po. In kind it is ADME, organism-based. The note with it: in vivo.
`O=S(=O)(Nc1nc2cc(Cl)ccc2o1)c1ccc2ccccc2c1` yielded a bioavailability greater than 100%.

Test system in the next series: not listed separately
The series can be described thus: Half life in rat at 5 mg/kg, po. The arrangement: dose 5 mg/kg, route oral. The note with it: in vivo. Type of series: ADME, organism-based.
For `O=S(=O)(Nc1nc2cc(Cl)ccc2o1)c1ccc2ccccc2c1`, the half-life was 7.5 h.
